Results from US20030215462A1, “Use of UGT inhibitors to increase bioavailability” (priority 2001, published 2003).

How the values were obtained:
[1] = test system: T1, UGT enzymes of human liver microsomes; assay: Kinetic and Ki studies of inhibitors of 7-HFC glucuronidation in human liver microsomes; type: biochemical; details: 7-HFC 20-500 μM
T1 construct: percentage of control metabolism, 7-HFC glucuronidation; percentage of control metabolism, 7-HFC glucuronidation

[2] = test system: UGT enzymes of human liver microsomes; assay: Inhibition of raloxifene glucuronidation (G1, G2) in human liver microsomes; type: biochemical
Excerpt: Compounds were eluted using a binary solvent gradient system. […] Solvent B was methanol. […] Detection was at 280 nm.

[3] = test system: UGT enzymes of pooled human jejunum microsomes; assay: Inhibition of estradiol (E2) glucuronidation in pooled human jejunum microsomes; type: biochemical; details: jejunum HJ61; E2 50 μM; inhibitor 10 μM
Excerpt: Compounds were eluted using a binary solvent gradient system where solvent A was dilute phosphoric acid (pH 3) and solvent B was 80:20 acetonitrile-methanol. […] Detection was at 280 nm.

[4] = target: T2, UGT1A1 (Homo sapiens, UniProt P22309); assay: Inhibition of raloxifene glucuronidation by recombinant UGT1A1 Supersomes; details: human; for activity at 15 min, 2 μM: inhibitor 2 μM; for activity at 15 min, 5 µM: inhibitor 5 μM; for activity at 15 min, 10 µM: inhibitor 10 μM; for activity at 15 min, 25 µM: inhibitor 25 μM; for activity at 15 min, 50 µM: inhibitor 50 μM
T2 sequence (P22309 26-533): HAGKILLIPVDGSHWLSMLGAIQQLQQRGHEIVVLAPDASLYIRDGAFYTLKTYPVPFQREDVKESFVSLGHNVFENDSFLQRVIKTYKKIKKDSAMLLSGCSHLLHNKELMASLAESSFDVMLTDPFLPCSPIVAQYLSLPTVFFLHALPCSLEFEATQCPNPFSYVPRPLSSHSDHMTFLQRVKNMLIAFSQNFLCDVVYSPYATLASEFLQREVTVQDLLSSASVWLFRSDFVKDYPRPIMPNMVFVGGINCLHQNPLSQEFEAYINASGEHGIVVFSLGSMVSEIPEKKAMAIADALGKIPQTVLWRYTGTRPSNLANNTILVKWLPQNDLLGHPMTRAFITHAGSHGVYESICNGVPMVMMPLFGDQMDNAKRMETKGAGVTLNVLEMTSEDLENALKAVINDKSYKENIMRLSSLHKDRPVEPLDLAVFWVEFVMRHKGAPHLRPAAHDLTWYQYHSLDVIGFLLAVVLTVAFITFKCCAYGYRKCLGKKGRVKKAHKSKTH
Procedure: (§1) Compounds were eluted using a binary solvent gradient system. Solvent A was water brought to pH 8 with NH4OH. Solvent B was methanol. Solvent flow rate was 1 ml/min and the column temperature was maintained at 50° C. Detection was at 280 nm. […] The system was then returned to the initial conditions and equilibrated for 3 min.

[5] = target: T3, UGT1A3 (Homo sapiens, UniProt P35503); assay: Inhibition of raloxifene glucuronidation by recombinant UGT1A3 Supersomes; details: human; for activity at 15 min, 10 µM: inhibitor 10 μM; for activity at 15 min, 25 µM: inhibitor 25 μM; for activity at 15 min, 50 µM: inhibitor 50 μM
T3 sequence (P35503 29-534): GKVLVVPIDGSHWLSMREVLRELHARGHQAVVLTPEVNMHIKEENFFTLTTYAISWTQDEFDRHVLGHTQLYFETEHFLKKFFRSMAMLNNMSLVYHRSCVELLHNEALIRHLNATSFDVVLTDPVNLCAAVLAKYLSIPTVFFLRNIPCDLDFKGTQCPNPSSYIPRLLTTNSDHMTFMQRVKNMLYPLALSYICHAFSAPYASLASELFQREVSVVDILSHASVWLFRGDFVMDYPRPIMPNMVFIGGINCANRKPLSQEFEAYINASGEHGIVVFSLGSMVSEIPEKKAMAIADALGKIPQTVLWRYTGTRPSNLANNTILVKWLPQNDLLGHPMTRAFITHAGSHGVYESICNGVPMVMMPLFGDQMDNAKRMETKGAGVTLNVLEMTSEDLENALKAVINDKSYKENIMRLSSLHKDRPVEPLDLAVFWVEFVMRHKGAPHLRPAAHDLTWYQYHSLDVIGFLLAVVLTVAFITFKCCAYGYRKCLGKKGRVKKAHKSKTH
Procedure: as §1

[6] = target: T4, UGT1A9 (Homo sapiens, UniProt O60656); assay: Inhibition of raloxifene glucuronidation by recombinant UGT1A9 Supersomes; details: for Inhibition of raloxifene glucuronidation, UGT1A9, first line per inhibitor (G1): first line (G1, metabolite not given); for Inhibition of raloxifene glucuronidation, UGT1A9, first line per inhibitor (G1) / Inhibition of raloxifene glucuronidation, UGT1A9, second line per inhibitor (G2): raloxifene 50 μM, 250 μg/ml Supersomes, 1 mM UDPGA, 15 min; for activity at 15 min, 5 µM / activity at 15 min, 10 µM / activity at 15 min, 25 µM / activity at 15 min, 50 µM: human, Supersomes with recombinant human UGT1A9, pH 7.5, probe raloxifene 50 μM; for Inhibition of raloxifene glucuronidation, UGT1A9, second line per inhibitor (G2): second line (G2, metabolite not given)
T4 sequence (O60656 26-530): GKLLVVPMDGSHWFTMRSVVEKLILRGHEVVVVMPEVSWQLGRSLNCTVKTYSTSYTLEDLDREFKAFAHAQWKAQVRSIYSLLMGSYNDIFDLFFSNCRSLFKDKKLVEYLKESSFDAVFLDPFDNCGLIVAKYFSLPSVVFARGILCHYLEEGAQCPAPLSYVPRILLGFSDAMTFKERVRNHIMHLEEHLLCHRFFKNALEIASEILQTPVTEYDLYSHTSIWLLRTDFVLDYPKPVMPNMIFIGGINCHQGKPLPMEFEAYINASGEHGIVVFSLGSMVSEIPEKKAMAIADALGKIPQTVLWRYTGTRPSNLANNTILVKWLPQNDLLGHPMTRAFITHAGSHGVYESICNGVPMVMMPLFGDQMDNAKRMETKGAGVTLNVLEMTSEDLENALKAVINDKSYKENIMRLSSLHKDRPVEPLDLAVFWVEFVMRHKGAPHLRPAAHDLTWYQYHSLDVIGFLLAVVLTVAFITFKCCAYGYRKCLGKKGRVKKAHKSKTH

[7] = liver lot 032101, inhibitor 10 μM
[8] = liver lot 062101, inhibitor 10 μM
[9] = liver lot 083000, inhibitor 10 μM
[10] = raloxifene 50 μM, inhibitor 10 μM
[11] = raloxifene 50 μM, inhibitor 25 μM
[12] = raloxifene 50 μM, inhibitor 50 μM
[13] = raloxifene 50 μM, inhibitor 100 μM
[14] = Supersomes with recombinant human UGT1A1, pH 7.5, probe raloxifene 50 μM, formation of glucuronide G1, % of control metabolism, raloxifene G1, UGT1A1
[15] = Supersomes with recombinant human UGT1A1, pH 7.5, probe raloxifene 50 μM, formation of glucuronide G1, Inhibition of raloxifene glucuronidation, G1, UGT1A1, G1, raloxifene 50 μM, 250 μg/ml Supersomes, 1 mM UDPGA, 15 min
[16] = Supersomes with recombinant human UGT1A1, pH 7.5, probe raloxifene 50 μM, formation of glucuronide G2, % of control metabolism, raloxifene G2, UGT1A1
[17] = recombinant UGT1A1 Supersomes, pH 7.5, probe raloxifene 50 μM (formation of glucuronide G1), Inhibition of raloxifene glucuronidation, G1, UGT1A1, G1, raloxifene 50 μM, 250 μg/ml Supersomes, 1 mM UDPGA, 15 min
[18] = recombinant UGT1A1 Supersomes, pH 7.5, probe raloxifene 50 μM (formation of glucuronide G2), Inhibition of raloxifene glucuronidation, G2, UGT1A1, G2, raloxifene 50 μM, 250 μg/ml Supersomes, 1 mM UDPGA, 15 min
[19] = Supersomes with recombinant human UGT1A3, pH 7.5, probe raloxifene 50 μM, formation of glucuronide G1, % of control metabolism, raloxifene G1, UGT1A3
[20] = Supersomes with recombinant human UGT1A3, pH 7.5, probe raloxifene 50 μM, formation of glucuronide G2, % of control metabolism, raloxifene G2, UGT1A3
[21] = recombinant UGT1A3 Supersomes, pH 7.5, probe raloxifene 50 μM (formation of glucuronide G1), Inhibition of raloxifene glucuronidation, G1, UGT1A3, G1, raloxifene 50 μM, 250 μg/ml Supersomes, 1 mM UDPGA, 15 min
[22] = recombinant UGT1A3 Supersomes, pH 7.5, probe raloxifene 50 μM (formation of glucuronide G2), Inhibition of raloxifene glucuronidation, G2, UGT1A3, G2, raloxifene 50 μM, 250 μg/ml Supersomes, 1 mM UDPGA, 15 min

Vmax of 7-HFC glucuronidation (fit of the experiment with this inhibitor) [1]: 57 ± 3 nmol/min/mg | Km ([1]; read-out: Km of 7-HFC glucuronidation (fit of the experiment with this inhibitor)): 85 ± 7 µM | % of control metabolism, raloxifene G1 [2, 7]: 51 (4) % | % of control metabolism, raloxifene G2 [2, 7]: 59 (3) % | % of control metabolism, raloxifene G1 [2, 8]: 61 (4) % | % of control metabolism, raloxifene G2 [2, 8]: 54 (4) % | % of control metabolism, raloxifene G1 [2, 9]: 27 (1) % | % of control metabolism, raloxifene G2 [2, 9]: 30 (1) % | % of control metabolism, raloxifene G1 [2, 10]: 27 (1) % | % of control metabolism, raloxifene G2 [2, 10]: 30 (1) % | % of control metabolism, raloxifene G1 [2, 11]: 7 (1) % | % of control metabolism, raloxifene G2 [2, 11]: 12 (2) % | % of control metabolism, raloxifene G1 [2, 12]: 0 (0), 0 (0) % | % of control metabolism, raloxifene G2 [2, 12]: 0 (0), 0 (0) % | % of control metabolism, raloxifene G1 [2, 13]: 0 (0), 0 (0) % | % of control metabolism, raloxifene G2 [2, 13]: 0 (0), 0 (0) % | residual metabolism (% of control), E2-3-β-D-glucuronide [3]: 18 (1) % | residual metabolism (% of control), E2-17-β-D-glucuronide [3]: 17 (1) % | activity at 15 min ([4]; Supersomes with recombinant human UGT1A1, pH 7.5, probe raloxifene 50 μM, formation of glucuronide G1): 17% | activity at 15 min, 2 μM [4, 14]: 71% | activity at 15 min, 5 µM [4, 14]: 39% | activity at 15 min, 10 µM [4, 14]: 17% | activity at 15 min, 25 µM [4, 14]: 4% | activity at 15 min, 50 µM [4, 14]: 0.4% | activity at 15 min, 25 µM [4, 15]: 4% | activity at 15 min, 50 µM [4, 15]: 0.4% | activity at 15 min, 2 μM [4, 16]: 71% | activity at 15 min, 5 µM [4, 16]: 38% | activity at 15 min, 10 µM [4, 16]: 17% | activity at 15 min, 25 µM [4, 16]: 8% | activity at 15 min, 50 µM [4, 16]: 0.9% | activity at 15 min, 2 μM [4, 17]: 71% | activity at 15 min, 5 µM [4, 17]: 39% | activity at 15 min ([4]; recombinant UGT1A1 Supersomes, pH 7.5, probe raloxifene 50 μM (formation of glucuronide G2)): 17% | activity at 15 min, 2 μM [4, 18]: 71% | activity at 15 min, 5 µM [4, 18]: 38% | activity at 15 min, 25 µM [4, 18]: 8% | activity at 15 min, 50 µM [4, 18]: 0.9% | activity at 15 min, 10 µM [5, 19]: 48% | activity at 15 min, 25 µM [5, 19]: 25% | activity at 15 min, 50 µM [5, 19]: 3% | activity at 15 min, 10 µM [5, 20]: 64% | activity at 15 min, 25 µM [5, 20]: 38% | activity at 15 min, 50 µM [5, 20]: 5% | activity at 15 min, 10 µM [5, 21]: 48% | activity at 15 min, 25 µM [5, 21]: 25% | activity at 15 min, 50 µM [5, 21]: 3% | activity at 15 min, 10 µM [5, 22]: 64% | activity at 15 min, 25 µM [5, 22]: 38% | activity at 15 min, 50 µM [5, 22]: 5% | Inhibition of raloxifene glucuronidation, UGT1A9, first line per inhibitor (G1) ([6]; inhibitor 5 μM): 53 (2) | Inhibition of raloxifene glucuronidation, UGT1A9, first line per inhibitor (G1) ([6]; inhibitor 50 μM): 17 (0) | activity at 15 min, 5 µM ([6]; formation of glucuronide G1, % of control metabolism, raloxifene G1, UGT1A9, inhibitor 5 μM): 53% | activity at 15 min, 10 µM ([6]; formation of glucuronide G1, % of control metabolism, raloxifene G1, UGT1A9, inhibitor 10 μM): 44% | activity at 15 min, 25 µM ([6]; formation of glucuronide G1, % of control metabolism, raloxifene G1, UGT1A9, inhibitor 25 μM): 21% | activity at 15 min, 50 µM ([6]; formation of glucuronide G1, % of control metabolism, raloxifene G1, UGT1A9, inhibitor 50 μM): 17% | activity at 15 min, 5 µM ([6]; formation of glucuronide G2, % of control metabolism, raloxifene G2, UGT1A9, inhibitor 5 μM): 76% | activity at 15 min, 10 µM ([6]; formation of glucuronide G2, % of control metabolism, raloxifene G2, UGT1A9, inhibitor 10 μM): 45% | activity at 15 min, 25 µM ([6]; formation of glucuronide G2, % of control metabolism, raloxifene G2, UGT1A9, inhibitor 25 μM): 19% | activity at 15 min, 50 µM ([6]; formation of glucuronide G2, % of control metabolism, raloxifene G2, UGT1A9, inhibitor 50 μM): 42% | Inhibition of raloxifene glucuronidation, UGT1A9, second line per inhibitor (G2) ([6]; inhibitor 5 μM): 76 (3) | Inhibition of raloxifene glucuronidation, UGT1A9, second line per inhibitor (G2) ([6]; inhibitor 10 μM): 45 (1) | Inhibition of raloxifene glucuronidation, UGT1A9, second line per inhibitor (G2) ([6]; inhibitor 25 μM): 19 (3) | Inhibition of raloxifene glucuronidation, UGT1A9, second line per inhibitor (G2) ([6]; inhibitor 50 μM): 42 (5)
Structure (SMILES): O=C(OC[C@H]1O[C@@H](OC(=O)c2cc(O)c(O)c(OC(=O)c3cc(O)c(O)c(O)c3)c2)[C@H](OC(=O)c2cc(O)c(O)c(OC(=O)c3cc(O)c(O)c(O)c3)c2)[C@@H](OC(=O)c2cc(O)c(O)c(OC(=O)c3cc(O)c(O)c(O)c3)c2)[C@@H]1OC(=O)c1cc(O)c(O)c(OC(=O)c2cc(O)c(O)c(O)c2)c1)c1cc(O)c(O)c(OC(=O)c2cc(O)c(O)c(O)c2)c1 [Tannic acid]
